A short description of data set [1]: Preservation of color and viscosity of the composition over time. Type of data set: physicochemical. The note with it: used instead of ascorbic acid in the gel. As to the method:
Gels were prepared according to the mixing procedure of Example 1, but with amounts of the ingredients to achieve molarities of those ingredients as shown below. Euxyl® PE9010 is a preservative having phenoxyethanol as the active ingredient (Schülke and Mayr, 30 Two Bridges Road Suite 225, Fairfield, N.J. 07004, USA).

For data set [2] the following is noted: cited from earlier work.

With `CCOC1=C(O)C(=O)O[C@@H]1[C@@H](O)CO` [3-O-ethyl ascorbic acid], the “color and viscosity stability of composition” value in data set [1] was “preserves the color and viscosity of the composition over long periods of time”.

For `O=NO` [Nitrous acid], in data set [2], the pKa is on record as 3.37.

These data come from patent US20130330244A1, “COMPOSITIONS AND METHODS FOR TOPICAL NITRIC OXIDE GENERATION” (NIOXX LLC, priority 2011, published 2013).
